# Assay results: US20140275277A1, “PHARMACEUTICAL COMPOSITION OF S-KETAMINE HYDROCHLORIDE” (JANSSEN PHARMACEUTICA NV, priority 2013, published 2014)
# Columns and labels:
# P. aeruginosa = test: Full AET Challenge Test (Example 2); format: cell-based, Pseudomonas aeruginosa; settings: after 28 days; spike 10^5-10^6 CFU/ml
# Experimental: (§1) The formulations listed in Table 3 were additionally subjected to a Full AET challenge, with results for the individual formulations are shown in Tables 5-8, below. Additionally, Table 9 below, provides results for a Full AET challenge of a reference formulation containing 0.00 mg/mL S-ketamine hydrochloride, denatonium benzoate (to mimic the taste of the S-ketamine HCl formulation(s)), and adjusted to pH 5.21 with 1N NaOH.
# S. aureus = test: Full AET Challenge Test (Example 2); format: cell-based, Staphylococcus aureus; settings: after 28 days; spike 10^5-10^6 CFU/ml
# Experimental: as §1
# C. albicans = test: Full AET Challenge Test (Example 2); format: cell-based, Candida albicans; settings: after 28 days; spike 10^5-10^6 CFU/ml
# Experimental: as §1
# A. brasiliensis = test: Full AET Challenge Test (Example 2); format: cell-based, Aspergillus brasiliensis; settings: after 28 days of incubation at room temperature; spike 10^5-10^6 CFU/ml
# Experimental: as §1
# [1] = tested on: environmental isolate Staphylococcus haemolyticus; test: Microbial challenge test (Example 1); format: cell-based; settings: spike 10^5-10^6 CFU/ml
# Excerpt: A challenge test was initiated to investigate whether the formulation could prevent microorganisms from proliferating. The challenge test consisted of challenging the formulation with a prescribed inoculum of microorganisms. The inoculated formulation was then stored at room temperature and at specified time intervals a sample was withdrawn to count the microorganisms in the sample.
# M. luteus = test: Full AET Challenge Test (Example 2); format: cell-based, Micrococcus Luteus; settings: after 28 days; spike 10^5-10^6 CFU/ml
# Experimental: as §1
# E. coli = test: Full AET Challenge Test (Example 2); format: cell-based, Escherichia coli; settings: after 28 days; spike 10^5-10^6 CFU/ml
# Experimental: as §1
smiles,measurement,setting,value
"CN[C@]1(c2ccccc2Cl)CCCCC1=O.Cl [S-ketamine hydrochloride, (S)-2-(2-chlorophenyl)-2-(methylamino)cyclohexanone hydrochloride]","Effect on the original spike of Pseudomonas aeruginosa, in words",P. aeruginosa,strong antimicrobial properties
same,"Effect on the original spike of Staphylococcus aureus, in words",S. aureus,strong antimicrobial properties
same,"Effect on the original spike of Candida albicans, in words",C. albicans,strong antimicrobial properties
same,"Effect on the original spike of Aspergillus brasiliensis, in words",A. brasiliensis,some inhibitory activity
same,"Effect on the original spike of Staphylococcus haemolyticus, in words",[1],strong antimicrobial properties
same,"Effect on the original spike of Micrococcus Luteus, in words",M. luteus,strong antimicrobial properties
same,"Effect on the original spike of Escherichia coli, in words",E. coli,strong antimicrobial properties
